According to patent US8217058B2, “Substituted piperidino phenyloxazolidinones” (Wockhardt Ltd., priority 2006, dated 2012):
Converted amounts (≈) assume the structure as drawn.

Tests used:
[1] = test system: Enterococcus faecium Efa-303; test: MIC test (agar dilution); type: cell-based; settings: Mueller Hinton agar, 24 h at 35° C.
[2] = test system: Staphylococcus aureus STA-014; test: MIC test (agar dilution); type: cell-based; settings: Mueller Hinton agar, 24 h at 35° C.
[3] = test system: Staphylococcus epidermidis STE-118; test: MIC test (agar dilution); type: cell-based; settings: Mueller Hinton agar, 24 h at 35° C.
[4] = test system: Staphylococcus epidermidis STE-110 MRSE; test: MIC test (agar dilution); type: cell-based; settings: Mueller Hinton agar, 24 h at 35° C.
[5] = test system: Staphylococcus aureus ATCC 25923; test: MIC test (agar dilution); type: cell-based; settings: Mueller Hinton agar, 24 h at 35° C.
[6] = test system: Streptococcus group F ATCC 12392; test: MIC test (agar dilution); type: cell-based; settings: Mueller Hinton agar, 24 h at 35° C.
[7] = test system: Enterococcus faecalis ATCC 29212; test: MIC test (agar dilution); type: cell-based; settings: Mueller Hinton agar, 24 h at 35° C.
[8] = test system: Staphylococcus aureus ATCC 29213; test: MIC test (agar dilution); type: cell-based; settings: Mueller Hinton agar, 24 h at 35° C.
[9] = test system: Streptococcus group B ATCC 12386; test: MIC test (agar dilution); type: cell-based; settings: Mueller Hinton agar, 24 h at 35° C.
[10] = test system: Streptococcus pneumoniae ATCC 6303; test: MIC test (agar dilution); type: cell-based; settings: Mueller Hinton agar, 24 h at 35° C.
[11] = test system: Enterococcus faecium Efa-332 VRE; test: MIC test (agar dilution); type: cell-based; settings: Mueller Hinton agar, 24 h at 35° C.
[12] = test system: Enterococcus faecalis Efe-406 VRE; test: MIC test (agar dilution); type: cell-based; settings: Mueller Hinton agar, 24 h at 35° C.
[13] = test system: Streptococcus group G ATCC 12394; test: MIC test (agar dilution); type: cell-based; settings: Mueller Hinton agar, 24 h at 35° C.
[14] = test system: Streptococcus agalactiae ATCC 13813; test: MIC test (agar dilution); type: cell-based; settings: Mueller Hinton agar, 24 h at 35° C.
[15] = test system: Streptococcus pyogenes ATCC 25147; test: MIC test (agar dilution); type: cell-based; settings: Mueller Hinton agar, 24 h at 35° C.
[16] = test system: Staphylococcus aureus MRSA-032; test: MIC test (agar dilution); type: cell-based; settings: Mueller Hinton agar, 24 h at 35° C.
Procedure: The in vitro MIC methods of test compounds were determined essentially as described in WO 95/25106, U.S. Pat. No. 5,668,286 and EP 0 750 618 B1.
Overnight grown cultures of MRSA-032 organisms in Tryptic Soya broth were diluted in Mueller Hinton Broth to give optical density matching with MacFarland tube 0.5 standard. Cultures were further diluted 1:10 in Mueller Hinton broth. Using Denley's multipoint inoculator, 10^4 cells were deposited on Mueller Hinton agar (Difco) containing range of 2 fold dilutions of test compounds. […] MIC is defined as minimum drug concentration that inhibits test organisms.

[17] = test system: Staphylococcus aureus Mu-50 VISA; test: MIC test (agar dilution); type: cell-based; settings: Mueller Hinton agar, 24 h at 35° C.
[18] = Oral pharmacokinetic study in dog, serum concentrations by HPLC; type: in vivo; parameters: Serum concentration: unit not given here; settings: for Serum concentration: dog, 15 mg/kg p.o
Procedure: Oral (15 mg/kg p.o) pharmacokinetic studies were done in dog. Blood samples were collected at time points of 0, 0.08 (not for oral), 0.25, 0.50, 1.0, 1.5, 2.0, 3.0, 4.0, 5.0, 6.0, 8.0, 10.0, 12.0 and 24.0 h. To facilitate IV dosing and collection of blood samples, the dogs were implanted with cannula in cephalic vein. Serum obtained from blood samples was used for HPLC-based analysis.
Serum samples were extracted by solid phase extraction technique using Water's OASIS HLB cartridges. An HPLC-Diode array detection system was used for analysis. Prepared samples were chromatographed on a YMC-AM reversed phase column (150×4.6 mm ID; 5 μm) using an isocratic mobile phase acetate buffer (50 mmol ammonium acetate pH 6.6) acetonitrile, 66:34% v/v (for a representative compound of the invention) at a flow rate of 1 ml/min, measured at λmax 254 nm. Independently prepared analytical standards and quality control samples were analyzed with each set of unknown samples.

[19] = test system: Staphylococcus aureus Smith; test: MIC test (agar dilution); type: cell-based; settings: Mueller Hinton agar, 24 h at 35° C.
[20] = test system: Streptococcus pneumoniae ATCC 49619; test: MIC test (agar dilution); type: cell-based; settings: Mueller Hinton agar, 24 h at 35° C.
[21] = test system: Streptococcus group C ATCC 12388; test: MIC test (agar dilution); type: cell-based; settings: Mueller Hinton agar, 24 h at 35° C.

## COCC1(O)CCN(c2c(F)cc(N3C[C@H](CNC(C)=O)OC3=O)cc2F)CC1 [Example-11, (5S)—N-{3-[3,5-difluoro-4-(4-hydroxy-(4-methoxymethyl)-piperidin-1yl)phenyl]-2-oxo-oxazolidin-5-ylmethyl}-acetamide]
[1]
  MIC: 4 µg/mL (≈ 9.68 µM)
[2]
  MIC: 4 µg/mL (≈ 9.68 µM)
[3]
  MIC: 1 µg/mL (≈ 2.42 µM)
[4]
  MIC: 1 µg/mL (≈ 2.42 µM)
[5]
  MIC: 2 µg/mL (≈ 4.84 µM)
[6]
  MIC: 2 µg/mL (≈ 4.84 µM)
[7]
  MIC: 2 µg/mL (≈ 4.84 µM)
[8]
  MIC: 2 µg/mL (≈ 4.84 µM)
[9]
  MIC: 2 µg/mL (≈ 4.84 µM)
[10]
  MIC: 2 µg/mL (≈ 4.84 µM)
[11]
  MIC: 2 µg/mL (≈ 4.84 µM)
[12]
  MIC: 4 µg/mL (≈ 9.68 µM)
[13]
  MIC: 2 µg/mL (≈ 4.84 µM)
[14]
  MIC: 2 µg/mL (≈ 4.84 µM)
[15]
  MIC: 2 µg/mL (≈ 4.84 µM)
[16]
  MIC: 4 µg/mL (≈ 9.68 µM)
[17]
  MIC: 2 µg/mL (≈ 4.84 µM)
[18]; dog pharmacokinetic study, up to 24 h post dosing
  Serum concentrations relative to the MIC value: significantly higher serum concentrations above the MIC value up to 24 h post dosing
[18]; time point 0.0 hr
  Serum concentration: 0.0
[18]; time point 0.25 hr
  Serum concentration: 4.14
[18]; time point 0.5 hr
  Serum concentration: 5.41
[18]; time point 1.0 hr
  Serum concentration: 8.76
[18]; time point 2.0 hr
  Serum concentration: 11.42
[18]; time point 3.0 hr
  Serum concentration: 10.97
[18]; time point 4.0 hr
  Serum concentration: 10.37
[18]; time point 5.0 hr
  Serum concentration: 8.81
[18]; time point 6.0 hr
  Serum concentration: 7.28 ± 2.14
[18]; time point 8.0 hr
  Serum concentration: 5.82 ± 1.58
[18]; time point 10.0 hr
  Serum concentration: 4.50 ± 1.03
[18]; time point 12.0 hr
  Serum concentration: 3.47 ± 1.25
[18]; time point 24.0 hr
  Serum concentration: 2.19 ± 1.91
[19]
  MIC: 2 µg/mL (≈ 4.84 µM)
[20]
  MIC: 2 µg/mL (≈ 4.84 µM)
[21]
  MIC: 2 µg/mL (≈ 4.84 µM)
